Measurements from EP1951748B1, “HEPATITIS C VIRUS VARIANTS” (Vertex Pharmaceuticals, Inc., priority 2005, dated 2007).
Where “and” joins values, the source holds several entries; their conditions need not be identical. Equal values may be shown once.

Key:
[1] = system: HCV replicon cells containing R155M; format: cell-based; conditions: for Replicon Assay (resistance of viral variant): R155M, value (spread in brackets)
Excerpt: (§1) The stable wild-type (mADE) and variant HCV sub-genomic replicon cell lines were generated using the T7 RNA runoff transcripts from the corresponding high efficiency Con1 replicon plasmids.
(§2) The stable wild-type and variant HCV sub-genomic replicon cell lines were generated using the T7 RNA runoff transcripts from the corresponding high efficiency Con1 replicon plasmids.

[2] = system: HCV replicon cells containing R155T; format: cell-based; conditions: for Replicon Assay (resistance of viral variant): R155T, value (spread in brackets)
Excerpt: as §1, §2

[3] = system: HCV replicon cells containing R155K; format: cell-based; conditions: for Replicon Assay (resistance of viral variant): R155K, value (spread in brackets)
Excerpt: as §1, §2

HCV NS3 protease A156T = format: biochemical
HCV NS3 protease T54A = format: biochemical
[4] = system: HCV replicon cells containing R155I; format: cell-based; conditions: value (spread in brackets), 2880 min
[5] = system: HCV replicon cells containing R155G; format: cell-based; conditions: value (spread in brackets), 2880 min
HCV NS3 protease A156S = format: biochemical
[6] = system: Con1-based HCV replicon cells with a different set of adaptive mutations (24-2); conditions: determined previously in 24-2 replicon cells (refs 25,41); read-out: 48-h IC50; cited from earlier work
genotype 1 HCV = test: Phase 1b clinical trial (Study VX04-950-101), plasma HCV RNA; conditions: for Δ in VL (Log change in HCV RNA from nadir to Day 14 (end of dosing)): 14 days, one value per subject
[7] = Hepatitis C virus, 48 h, read-out: Replicon IC50

NC(=O)c1ncn([C@@H]2O[C@H](CO)[C@@H](O)[C@H]2O)n1 [Ribavirin, 1-beta-D-ribofuranosyl-1H-- 1,2,4-triazole-3-carboxamide]
IC50 [1, 7]: 39 ± 5 µM | Fold change ([1]; replicon IC50 of R155M divided by that of the wild-type HCV replicon, 2880 min): 0.7 ± 0.1 | IC50 [2, 7]: 32 ± 18 µM | Fold change ([2]; replicon IC50 of R155T divided by that of the wild-type HCV replicon, 2880 min): 0.6 ± 0.3 | IC50 [3, 7]: 37 ± 17 µM | Fold change ([3]; replicon IC50 of R155K divided by that of the wild-type HCV replicon, 2880 min): 0.6 ± 0.3

COc1ccc2c(O[C@@H]3C[C@H]4C(=O)N[C@]5(C(=O)O)C[C@H]5/C=C\CCCCC[C@H](NC(=O)OC5CCCC5)C(=O)N4C3)cc(-c3csc(NC(C)C)n3)nc2c1 [BILN 2061]
Fold change (HCV NS3 protease A156T; enzyme IC50 of A156T compared to the genotype 1a HCV-H reference strain, 15 min): >183 | Replicon Assay (resistance of viral variant) ([1]; 2880 min): 42.2(2.1) | Replicon Assay (resistance of viral variant) ([2]; 2880 min): 645 (173) | Replicon Assay (resistance of viral variant) ([3]; 2880 min): 355 (213) | IC50 (HCV NS3 protease T54A; T54A): 10 nM | Fold change (HCV NS3 protease T54A; enzyme IC50 of T54A compared to the genotype 1a HCV-H reference strain, 15 min): 2.3 | Replicon Assay (resistance of viral variant) [4]: 36.5 (9.5) | Replicon Assay (resistance of viral variant) [5]: 821 (208) | IC50 (HCV NS3 protease A156S; A156S): 7.4 nM | Fold change (HCV NS3 protease A156S; enzyme IC50 of A156S compared to the genotype 1a HCV-H reference strain, 15 min): 1.6

CC(C)(C)OC(=O)N[C@H]1CCCCC/C=C\[C@@H]2C[C@@]2(C(=O)NS(=O)(=O)C2CC2)NC(=O)[C@@H]2C[C@@H](OC(=O)N3Cc4cccc(F)c4C3)CN2C1=O [ITMN-191]
Replicon Assay (resistance of viral variant) ([2]; 2880 min): 9.2 | Replicon Assay (resistance of viral variant) ([3]; 2880 min): 62.8 | Replicon Assay (resistance of viral variant) [4]: 1.3(0.2) | Replicon Assay (resistance of viral variant) [5]: 18.7(3.0)

CCC[C@H](NC(=O)[C@@H]1[C@H]2CCC[C@H]2CN1C(=O)[C@@H](NC(=O)[C@@H](NC(=O)c1cnccn1)C1CCCCC1)C(C)(C)C)C(=O)C(=O)NC1CC1 [VX-950]
IC50 (HCV NS3 protease A156T; A156T, one row per patient-specific genetic background): 21.5 µM and 15 µM | IC50 (HCV NS3 protease A156I): > 50 µM | IC50 [6]: 354 nM | HCV RNA levels at Day 14 (genotype 1 HCV; 7 patients with continued response, down to undetectable (<10 IU/mL)): ≤ 64 IU/mL | drop in HCV RNA (initial response) (genotype 1 HCV; 13 patients who later rebounded during dosing): greater than 2 log10 | Δ in VL (Log change in HCV RNA from nadir to Day 14 (end of dosing)) (genotype 1 HCV; dose 450 (mg q8h)): 1.82 and 0.65 and 0.41 and 1.84 and 1.06 | Δ in VL (Log change in HCV RNA from nadir to Day 14 (end of dosing)) (genotype 1 HCV; dose 750 (mg q8h)): 0.73 and 0.22 | Δ in VL (Log change in HCV RNA from nadir to Day 14 (end of dosing)) (genotype 1 HCV; dose 1250 (mg q12h)): 3.20 and 1.16 and 1.93 and 0.05 and 0.33 and 0.62 and 0.26

CC(C)(C)NC(=O)N[C@H](C(=O)N1C[C@H]2[C@@H]([C@H]1C(=O)NC(CC1CCC1)C(=O)C(N)=O)C2(C)C)C(C)(C)C (stereo partly drawn) [SCH 503034]
Replicon Assay (resistance of viral variant) ([1]; 2880 min): 2.5(0.3) | Replicon Assay (resistance of viral variant) ([2]; 2880 min): 10.2(2.4) | Replicon Assay (resistance of viral variant) ([3]; 2880 min): 6.2(4.9) | Replicon Assay (resistance of viral variant) [4]: 6.6(2.1) | Replicon Assay (resistance of viral variant) [5]: 2.8(0.6)
